From patent US20240043859A1, “HERBICIDE-RESISTANT PROTEIN, AND GENE AND USE THEREOF” (QINGDAO KINGAGROOT CHEMICAL COMPOUND CO., LTD., priority 2020, published 2024)
“Also recorded” adds a separate entry of the source.

How the values were obtained:
AAD-12 = target: T1, AAD-12 (Delftia acidovorans, UniProt P83309); experiment: Degradation activities of AAD-12 on phenoxy acetic acid herbicides by spectrophotometry (A510); type: biochemical, Comamonas acidovorans
T1 construct: made in house; host or cells: E. coli BL21(DE3)
Procedure: As reported in literature (Fukomori and Flausinger, Purification and characterization of 2,4-dichlorophenoxyacetate/alpha-ketoglutarate dioxygenase Journal of Biological Chemistry (1993) 268(32): 24311-24317), the constructed expression vector pET15b-AAD12 was transformed into E. coli BL21(DE3) and induced by IPTG for expression. After cells were collected and lysed, Ni-NTA column was used for purification and the purity of the protein was analyzed by SDS-PAGE.
Since phenolic products were produced by AAD-12-substrate catalytic reaction, 4-aminoantipyrine and potassium ferricyanide could be used to develop color with the products in an alkaline environment to generate red products with absorption at 510 nm, and the relevant parameters were directly read with a microplate reader.

Arabidopsis thaliana [1] = experiment: Herbicide resistance of transgenic Arabidopsis thaliana seedlings on plate medium (root growth); type: in vivo; conditions: plate medium: 2,4-D 0.3 μmol; 2,4-DB sodium 0.7 μmol; MCPA 0.1 μmol
Procedure: Expression in Arabidopsis thaliana was regulated by its AtUbi10 Arabidopsis thaliana ubiquitin promoter and the MAS (mannopine synthase) terminator. Hygromycin resistance gene (HygR=hpt) served as the selection marker.
Preparation of Agrobacterium infection solution: An activated Agrobacterium (GV3101) monoclone was picked and inoculated in 30 ml YEP liquid medium [yeast powder 10 g/L, tryptone 10 g/L, NaCl 5 g/L, 25 mg/L Rifampicin and 50 mg/L Kanamycin], shaking-cultured at 200 rmp/min, 28° C. overnight until the OD600 was about 1.0-1.5, then centrifuged at 6000 rmp/min for 10 min to collect the bacteria, and the supernatant was discarded. Arabidopsis thaliana infection solution (sucrose 50 g/L, Silwet L-77 300 μL/L, no need to adjust pH) was used to resuspend the cells to OD600=0.8 for later use.
Genetic transformation of Arabidopsis thaliana by flower dipping: Before transformation of Arabidopsis thaliana plants, attentions were paid to whether the plants were growing well, the inflorescences were abundant, and no stress response occurred. The first transformation was performed when plants were about 20 cm high. Plants could be properly watered if the soil was dry. The grown siliques were cut off with scissors the day before transformation. The inflorescences of the plants to be transformed were soaked in the above-mentioned Agrobacterium solution for 30 seconds to 1 minute, which was stirred gently during the period. And a layer of liquid film should appear on the infiltrated plant. The transformed plants were cultured in a dark environment for 24 hours, and then taken out and grown in a normal light environment. A second transformation could be performed in the same way a week later. […]

Arabidopsis thaliana [2] = experiment: Spray testing of T2 generation transgenic Arabidopsis thaliana; type: in vivo; conditions: 100 g/ha foliage spray, 10 days after spraying
Excerpt: The T2 generation seedlings of four representative transformants, pQY2309, pQY2310, pQY2311 and pQY2313, were selected for further spray testing. Four lines were randomly selected from the T2 generation generated by transformation of each vector, and respectively foliage-sprayed with 2,4-D (100 g/ha), MCPA (100 g/ha) and 2,4-DB sodium (100 g/ha) when Arabidopsis thaliana seeds germinated, transplanted and the seedlings grew to 5-7 leaf. Non-transgenic wild-type Col-0 served as a negative control. The level of resistance was assessed 10 days after spraying.

[3] = AAD-12 enzyme with substrate, chromogenic detection at 510 nm

T1 sequence (P83309 2-292, added parts left off): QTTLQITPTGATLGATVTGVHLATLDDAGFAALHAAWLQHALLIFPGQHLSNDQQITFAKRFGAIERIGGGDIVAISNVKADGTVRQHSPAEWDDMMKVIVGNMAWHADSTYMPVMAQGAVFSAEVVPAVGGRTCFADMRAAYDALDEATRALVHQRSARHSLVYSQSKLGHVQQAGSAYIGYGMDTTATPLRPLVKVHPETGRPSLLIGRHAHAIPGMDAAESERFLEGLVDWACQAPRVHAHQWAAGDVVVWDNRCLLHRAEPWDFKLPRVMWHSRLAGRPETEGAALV

Q: What does the source list for `O=C(O)COc1ccc(Cl)cc1Cl` [2,4-D, (2,4-dichlorophenoxy)acetic acid, reference compound]?
A: Degradation activity of expressed AAD-12 enzyme on the substrate (AAD-12): degradation activities; A510 of reaction group, Reaction 1 (AAD-12; [3]): 0.2865; A510 of reaction group, Reaction 2 (AAD-12; [3]): 0.2766; A510 of reaction group, Reaction 3 (AAD-12; [3]): 0.2652; Increased A510 (AAD-12; reaction group versus blank group): +0.130; Effect of the herbicide on seminal roots of wild-type Col-0 (Arabidopsis thaliana [1]): uncapable of growing roots; also recorded: seminal roots are inhibited; also recorded: seminal roots are not able to grow; Effect of the herbicide spray on wild-type Col-0 (Arabidopsis thaliana [2]): all or almost all non-transgenic wild-type Arabidopsis thaliana died; also recorded: all die
